Results: patent US8906860B2, “Methods and compositions inhibiting tumor cell proliferation” (The Board of Trustees of the University of Illinois, priority 2011, dated 2014)
Like-named read-outs stand apart in the source and are kept apart here. Square brackets hold non-standard residues; d marks the D form. Peptide text beside a SMILES is read from it.

Key:
p53 null sarcoma cells [1] = test: In vitro peptide treatment of p53 null sarcoma cells (viability, TUNEL); type: cell-based, mouse; conditions: 24 hours
S2 cells = conditions: 24 hours
Protocol: TUNEL assay was used to measure apoptosis in S2 cells treated with WT-blocked, mutant-blocked or WT-unblocked (D-Arg)9-p19^ARF 26-44 peptides. (D-Arg)9-p19^ARF 26-44 peptide treatment of cells was performed in 8-well chamber slides for TUNEL staining. On Day 0, 20,000 cells per well were seeded in the 8-well chamber slides. On Day 1, slides were replenished with fresh media containing one of the following concentrations of either WT-blocked, mutant-blocked or WT-unblocked (D-Arg)9-p19^ARF 26-44 peptides: 10, 15, 25, 30, 40 and 70 μM for 24 hours. On Day 2, TUNEL staining was performed following the manufacture's protocol (ApopTag® Fluorescein In Situ Apoptosis Detection Kit from CHEMICON® International, S7110). The percent of apoptosis of S2 cells (±SD) was measured by counting the number of TUNEL-positive cells (green fluorescence) per 1,000 nuclei as visualized by DAPI (blue fluorescence) counterstaining. The experiment was repeated in a second experiment using the same protocol. Statistical analysis and EC50 calculation were performed using GraphPad Prism software.

[2] = tested on: p53 null thymic lymphoma cells; test: Kidney colonization of intravenously injected p53 null thymic lymphoma cells in SCID mice; type: in vivo, mouse; conditions: 2.5 mg/kg intraperitoneal every other day, 10 injections
Protocol: (§1) These experiments were performed to determine if modifying the termini conferred any advantages on these peptides when administered to an animal. Both wild type ARF 26-44 (rrrrrrrrrKFVRSRRPRTASCALAFVN) (SEQ ID NO 10) and mutant ARF 37-44 (rrrrrrrrrSCALAFVN) (SEQ ID NO 21) peptides were synthesized by Genemed Synthesis Inc. (San Antonio, Tex.). The N-terminus of each peptide was fused with nine D-Arg(r) residues. Both wild type and mutant peptides were blocked with amidation on C-terminus and acetylation on N-terminus. For sarcoma cells, mice were treated with 5 mg/kg body weight of peptide every other day for 10 times. For lymphoma cells, mice were treated with 2.5 mg/kg body weight of peptide every other day for 10 times.
To test the therapeutic effect of the ARF-peptide on p53 null tumors in vivo, p53 null lymphoma/sarcoma cells were introduced into the circulation of SCID mice through intravenous injection. ICR SCID mice were obtained from Taconic Farms (Germantown, N.Y.). Both p53 null sarcoma and lymphoma cells were stably transduced before injection with lentivirus carrying a gene conferring luciferase expression. Specifically, cells were stably transduced with pFU-L2G luciferase construct obtained from Sanjiv Sam Gambhir (M. D., Ph.D) of Stanford University as optimized by Dr. Huiping Liu (Liu et al., Proc Natl Acad Sci USA, 107: 18115-18120). This construct enabled expression of both the bioluminescence and green fluorescence protein. eGFP positive cells were sorted by Beckman Coulter MoFlo. 3×10^6 cells were suspended in cold PBS and injected through the tail vein of SCID mice. Live animal imaging was performed using an IVIS Spectrum optical imaging machine (Caliper Life Sciences, Alameda, Calif.). […] Mice were randomized into three groups and were treated with PBS, mutant-peptide or the wild type ARF-peptide for 10 injections every other day by intraperitoneal injection. […] The mice were sacrificed and lung sections were analyzed for tumor colonies. […] For the p53 null thymic lymphoma cells, metastatic growth in kidney was observed, consistent with murine thymic lymphoma cells having a tendency to colonize kidney, liver and spleen (Aoudjit et al., 1998, Blood, 91: 623-629).

[3] = tested on: p53 null thymic lymphoma cell lines L1 and L2; test: In vitro peptide treatment of p53 null thymic lymphoma cells (viability, TUNEL); type: cell-based, mouse; conditions: one day after treatment
p53 null sarcoma cells [4] = test: Lung colonization of intravenously injected p53 null sarcoma cells in SCID mice; type: in vivo, mouse; conditions: 5 mg/kg intraperitoneal every other day, 10 injections
Protocol: as §1
To test the therapeutic effect of the ARF-peptide on p53 null tumors in vivo, p53 null lymphoma/sarcoma cells were introduced into the circulation of SCID mice through intravenous injection. ICR SCID mice were obtained from Taconic Farms (Germantown, N.Y.). Both p53 null sarcoma and lymphoma cells were stably transduced before injection with lentivirus carrying a gene conferring luciferase expression. Specifically, cells were stably transduced with pFU-L2G luciferase construct obtained from Sanjiv Sam Gambhir (M. D., Ph.D) of Stanford University as optimized by Dr. Huiping Liu (Liu et al., Proc Natl Acad Sci USA, 107: 18115-18120). This construct enabled expression of both the bioluminescence and green fluorescence protein. eGFP positive cells were sorted by Beckman Coulter MoFlo. 3×10^6 cells were suspended in cold PBS and injected through the tail vein of SCID mice. Live animal imaging was performed using an IVIS Spectrum optical imaging machine (Caliper Life Sciences, Alameda, Calif.). […] Mice were randomized into three groups and were treated with PBS, mutant-peptide or the wild type ARF-peptide for 10 injections every other day by intraperitoneal injection. […] The mice were sacrificed and lung sections were analyzed for tumor colonies. […]

What does the source list for `CC(=O)N[C@H](CCCNC(=N)N)C(=O)N[C@H](CCCNC(=N)N)C(=O)N[C@H](CCCNC(=N)N)C(=O)N[C@H](CCCNC(=N)N)C(=O)N[C@H](CCCNC(=N)N)C(=O)N[C@H](CCCNC(=N)N)C(=O)N[C@H](CCCNC(=N)N)C(=O)N[C@H](CCCNC(=N)N)C(=O)N[C@H](CCCNC(=N)N)C(=O)N[C@@H](CCCCN)C(=O)N[C@@H](Cc1ccccc1)C(=O)N[C@H](C(=O)N[C@@H](CCCNC(=N)N)C(=O)N[C@@H](CO)C(=O)N[C@@H](CCCNC(=N)N)C(=O)N[C@@H](CCCNC(=N)N)C(=O)N1CCC[C@H]1C(=O)N[C@@H](CCCNC(=N)N)C(=O)N[C@H](C(=O)N[C@@H](C)C(=O)N[C@@H](CO)C(=O)N[C@@H](CS)C(=O)N[C@@H](C)C(=O)N[C@@H](CC(C)C)C(=O)N[C@@H](C)C(=O)N[C@@H](Cc1ccccc1)C(=O)N[C@H](C(=O)N[C@@H](CC(N)=O)C(N)=O)C(C)C)[C@@H](C)O)C(C)C` [WT Blocked, rrrrrrrrrKFVRSRRPRTASCALAFVN] (Ac-[dR][dR][dR][dR][dR][dR][dR][dR][dR]KFVRSRRPRTASCALAFVN-NH2)?
Viability and apoptosis (TUNEL) after peptide treatment (p53 null sarcoma cells [1]): A similar effect was observed in p53 null sarcoma cells; % of TUNEL Positive S2 Cells, Mean (S2 cells; Experiment 1, 10 μM/Well): 0.46%; % of TUNEL Positive S2 Cells, Mean (S2 cells; Experiment 1, 25 μM/Well): 20.27%; % of TUNEL Positive S2 Cells, Mean (S2 cells; Experiment 1, 30 μM/Well): 57.78%; % of TUNEL Positive S2 Cells, Mean (S2 cells; Experiment 1, 40 μM/Well): 98.48%; % of TUNEL Positive S2 Cells, Mean (S2 cells; Experiment 2, 10 μM/Well): 12.91%; % of TUNEL Positive S2 Cells, Mean (S2 cells; Experiment 2, 15 μM/Well): 13.6%; % of TUNEL Positive S2 Cells, Mean (S2 cells; Experiment 2, 25 μM/Well): 39.48%; % of TUNEL Positive S2 Cells, Mean (S2 cells; Experiment 2, 30 μM/Well): 47.52%; % of TUNEL Positive S2 Cells, Mean (S2 cells; Experiment 2, 40 μM/Well): 70.17%; Apoptosis induction compared between peptides (TUNEL) (S2 cells; S2 cells, 10-70 μM): induced significantly higher apoptosis compared to WT-unblocked and mutant-blocked; Kidney tumor mass at sacrifice [2]: retained their original size and structure, with only a small white mass beginning to build up on the surface of the kidney; Luciferase signal from colonized lymphoma cells ([2]; around 20 days after inoculation): emitted very little fluorescence; Apoptosis of cells after peptide treatment [3]: underwent apoptosis; Number of viable cells versus mutant-peptide or PBS [3]: much less; Number of lung tumor colonies larger than 100 μm×100 μm (p53 null sarcoma cells [4]): A reduced number of tumor colonies; Tumors on the surface of the lungs (p53 null sarcoma cells [4]): fewer tumors were observed on the surface of the lungs; Luciferase signal from mice (p53 null sarcoma cells [4]; 20 days after inoculation): significantly reduced
